Test results: PubChem BioAssay AID1259411 (Chemical Carcinogenesis Research Information System (CCRIS), 2018)
The source made the active and inactive calls. How the calls were made is not given here.

Tested on: rodent carcinogenicity bioassays, tumor incidence
Experiment: CCRIS carcinogenicity studies
Details: Dose: 0
In short: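 Archive of carcinogenicity, mutagenicity, tumor promotion and tumor inhibition results drawn from journals, NCI reports and other sources, expert-reviewed; covers 1985-2011 and is no longer updated.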

Cc1cccn2c1nc1ccc(N)nc12
carcinogen call (Species: MOUSE, Strain/Sex: B6C3F1/MALE, Route: INTRAPERITONEAL, 0.625 UMOL IN 35 µL DMSO ON D 1, 8, AND 15 AFTER BIRTH (STUDY DURATION: 8 MO), Tumor Site: Type of Lesion: LIVER: HEPATOCELLULAR ADENOMA): active; positive
carcinogen call (Species: MOUSE, Strain/Sex: B6C3F1/MALE, Route: INTRAPERITONEAL, 0.625 UMOL IN 35 µL DMSO ON D 1, 8, AND 15 AFTER BIRTH (STUDY DURATION: 12 MO), Tumor Site: Type of Lesion: LIVER: HEPATOCELLULAR ADENOMA): active; positive
carcinogen call (Species: MOUSE, Strain/Sex: B6C3F1/MALE, Route: INTRAPERITONEAL, 1.25 UMOL IN 35 µL DMSO ON D 1, 8, AND 15 AFTER BIRTH (STUDY DURATION: 8 MO), Tumor Site: Type of Lesion: LIVER: HEPATOCELLULAR ADENOMA): active; positive
carcinogen call (Species: MOUSE, Strain/Sex: B6C3F1/MALE, Route: INTRAPERITONEAL, 1.25 UMOL IN 35 µL DMSO ON D 1, 8, AND 15 AFTER BIRTH (STUDY DURATION: 12 MO), Tumor Site: Type of Lesion: LIVER: HEPATOCELLULAR ADENOMA): active; positive
carcinogen call (Species: MOUSE, Strain/Sex: CDF1/FEMALE, Route: ORAL, 0.05% IN DIET FOR UP TO 685 D (STUDY DURATION: 685 D), Tumor Site: Type of Lesion: LIVER: HEPATOCELLULAR ADENOMA OR CARCINOMA, BLOOD VESSELS: HEMANGIOENDOTHELIOMA OR HEMANGIOENDOTHELIAL SARCOMA): active; positive
carcinogen call (Species: MOUSE, Strain/Sex: CDF1/MALE, Route: ORAL, 0.05% IN DIET FOR 12 MO (STUDY DURATION: 12 MO), Tumor Site: Type of Lesion: BROWN ADIPOSE TISSUE: HEMANGIOENDOTHELIAL SARCOMA, LIVER: HEPATOCELLULAR ADENOMA OR CARCINOMA, LUNG: PULMONARY ADENOMA O, Tumor Site: Type of Lesion: BROWN ADIPOSE TISSUE: HEMANGIOENDOTHELIAL SARCOMA, LIVER: HEPATOCELLULAR ADENOMA OR CARCINOMA, LUNG: PULMONARY ADENOMA O): active; positive
carcinogen call (Species: MOUSE, Strain/Sex: CDF1/MALE, Route: ORAL, 0.05% IN DIET FOR UP TO 685 D (STUDY DURATION: 685 D), Tumor Site: Type of Lesion: BLOOD VESSELS: HEMANGIOENDOTHELIOMA OR HEMANGIOENDOTHELIAL SARCOMA): active; positive
carcinogen call (Species: RAT, Strain/Sex: F344/FEMALE, Route: ORAL, 500 PPM IN DIET (AV DAILY DOSE: 4.3 MG) FOR 24 MO (STUDY DURATION: 104 WK), Tumor Site: Type of Lesion: LIVER: HEPATOCELLULAR CARCINOMA OR ANAPLASTIC HEPATOMA, SMALL INTESTINE: ADENOMA OR ADENOCARCINOMA OR MUCINOUS CARCINOMA): active; positive
carcinogen call (Species: RAT, Strain/Sex: F344/MALE, Route: ORAL, 500 PPM IN DIET (AV DAILY DOSE: 7.4 MG) FOR 24 MO (STUDY DURATION: 104 WK), Tumor Site: Type of Lesion: LIVER: HEPATOCELLULAR CARCINOMA OR ANAPLASTIC HEPATOMA, SMALL INTESTINE: ADENOMA OR ADENOCARCINOMA OR MUCINOUS CARCINOMA): active; positive

O=S1(=O)CC=CC1
carcinogen call (Species: MOUSE, Strain/Sex: B6C3F1/FEMALE, Route: GAVAGE, 384, 768 MG/KG, 384, 768 MG/KG): inactive; negative
carcinogen call (Species: MOUSE, Strain/Sex: B6C3F1/MALE, Route: GAVAGE, 311, 622 MG/KG, 311, 622 MG/KG): inactive; negative
carcinogen call (Species: RAT, Strain/Sex: OSBORNE-MENDEL/FEMALE, Route: GAVAGE, 120, 240 MG/KG, 120, 240 MG/KG): inactive; negative
carcinogen call (Species: RAT, Strain/Sex: OSBORNE-MENDEL/MALE, Route: GAVAGE, 197, 372 MG/KG, 197, 372 MG/KG): inactive; negative

CN1C(C(=O)Nc2ccccn2)=C(O)c2sc(Cl)cc2S1(=O)=O
carcinogen call (Species: RAT, Strain/Sex: SPRAGUE-DAWLEY/FEMALE, Route: GAVAGE, 0.0625, 0.125, 0.250 MG/KG BW/D FOR 104 WK, HIGH DOSE REDUCED TO 0.0200 MG/KG FROM STUDY WK 42 TO 50 THEN TO 0.160 MG, 0.0625, 0.125, 0.250 MG/KG BW/D FOR 104 WK, HIGH DOSE REDUCED TO 0.0200 MG/KG FROM STUDY WK 42 TO 50 THEN TO 0.160 MG): inactive; negative
carcinogen call (Species: RAT, Strain/Sex: SPRAGUE-DAWLEY/MALE, Route: GAVAGE, 0.0625, 0.125, 0.250 MG/KG BW/D FOR 104 WK (STUDY DURATION: 104 WK), 0.0625, 0.125, 0.250 MG/KG BW/D FOR 104 WK (STUDY DURATION: 104 WK)): inactive; negative

COc1cc(OC)nc(NC(=O)NS(=O)(=O)c2c(Cl)nc3ccccn23)n1
carcinogen call (Species: Mouse, Strain/Sex: CD-1/Female (50/Group), Route: Oral, 86.8, 870.0, 10,303.5 mg/kg/day of 99.6-99.8% imazosulfuron in diet for 18 mo, study duration 18 mo, 86.8, 870.0, 10,303.5 mg/kg/day of 99.6-99.8% imazosulfuron in diet for 18 mo, study duration 18 mo): inactive; negative
carcinogen call (Species: Mouse, Strain/Sex: CD-1/Male (50/Group), Route: Oral, 72.7, 741.3, 7848.1 mg/kg/day of 99.6-99.8% imazosulfuron in diet for 18 mo, study duration 18 mo, 72.7, 741.3, 7848.1 mg/kg/day of 99.6-99.8% imazosulfuron in diet for 18 mo, study duration 18 mo): inactive; negative
carcinogen call (Species: Rat, Strain/Sex: CD (Sprague-Dawley derived)/Female (50/Group), Route: Oral, 12.94, 132.46, 1554.35 mg/kg/day of 99.6-99.8% imazosulfuron in diet for 24 mo, study duration 24 mo, 12.94, 132.46, 1554.35 mg/kg/day of 99.6-99.8% imazosulfuron in diet for 24 mo, study duration 24 mo): inactive; negative
carcinogen call (Species: Rat, Strain/Sex: CD (Sprague-Dawley derived)/Male (50/Group), Route: Oral, 10.39, 106.10, 1123.99 mg/kg/day of 99.6-99.8% imazosulfuron in diet for 24 mo, study duration 24 mo, 10.39, 106.10, 1123.99 mg/kg/day of 99.6-99.8% imazosulfuron in diet for 24 mo, study duration 24 mo): inactive; negative

O[C@@H]1[C@@H]2O[C@@H]2C=C[C@H]1O
carcinogen call (Species: MOUSE, Strain/Sex: SWISS/FEMALE, Route: INTRAPERITONEAL, 2.7, 13.7 UMOL ADMINISTERED AS 3 UNEQUAL DOSES (1/7, 2/7, AND 4/7 OF THE TOTAL DOSE) OVER A 2-WK PERIOD (STUDY DURATI, 2.7, 13.7 UMOL ADMINISTERED AS 3 UNEQUAL DOSES (1/7, 2/7, AND 4/7 OF THE TOTAL DOSE) OVER A 2-WK PERIOD (STUDY DURATI, Tumor Site: Type of Lesion: LUNG: ADENOMA): active; positive
carcinogen call (Species: MOUSE, Strain/Sex: SWISS/FEMALE, Route: INTRAPERITONEAL, 13.7 UMOL ADMINISTERED AS 3 UNEQUAL DOSES (1/7, 2/7, AND 4/7 OF THE TOTAL DOSE) OVER A 2-WK PERIOD (STUDY DURATION: 2, Tumor Site: Type of Lesion: LUNG: ADENOMA): active; positive
carcinogen call (Species: MOUSE, Strain/Sex: SWISS/MALE, Route: INTRAPERITONEAL, 2.7, 13.7 UMOL ADMINISTERED AS 3 UNEQUAL DOSES (1/7, 2/7, AND 4/7 OF THE TOTAL DOSE) OVER A 2-WK PERIOD (STUDY DURATI, 2.7, 13.7 UMOL ADMINISTERED AS 3 UNEQUAL DOSES (1/7, 2/7, AND 4/7 OF THE TOTAL DOSE) OVER A 2-WK PERIOD (STUDY DURATI, Tumor Site: Type of Lesion: LUNG: ADENOMA): active; positive
carcinogen call (Species: MOUSE, Strain/Sex: SWISS/MALE, Route: INTRAPERITONEAL, 13.7 UMOL ADMINISTERED AS 3 UNEQUAL DOSES (1/7, 2/7, AND 4/7 OF THE TOTAL DOSE) OVER A 2-WK PERIOD (STUDY DURATION: 2, Tumor Site: Type of Lesion: LUNG: ADENOMA): active; positive

ON=C1CCCC1
carcinogen call (Species: RAT, Strain/Sex: F344/MALE, Route: GAVAGE, 2 MMOL/KG BW 1/WK FOR 50 WK (STUDY DURATION: 83 WK)): inactive; negative
